Legend:
Tetranychus urticae = assay: Tetranychus test (OP-resistant/dip treatment); type: in vivo
Procedure: [table] To produce a suitable preparation of active compound, 1 part by weight of active compound is mixed with the stated amounts of solvent and emulsifier, and the concentrate is diluted with emulsifier-containing water to the desired concentration. Bean plants (Phaseolus vulgaris) which are heavily infested by all stages of the greenhouse […] spider mite (Tetranychus urticae) are dipped into the preparation of active compound of the desired concentration. After the desired period of time, the efficacy in % is determined. 100% means that all spider mites have been killed; 0% means that none of the spider mites have been killed.

[1] = log P determination by HPLC (reversed-phase C 18), EEC Directive 79/831 Annex V.A8; type: physicochemical; settings: HPLC, pH 2.3, 43° C.; read-out: log P (pH 2.3)
Procedure: The log P values given in the tables and Preparation Examples above are determined in accordance with EEC Directive 79/831 Annex V.A8 by HPLC (High Performance Liquid Chromatography) using a reversed-phase column (C 18). Temperature: 43° C. […]
Calibration was carried out using unbranched alkan-2-ones (having 3 to 16 carbon atoms) with known log P values (determination of the log P values by the retention times using linear interpolation between two successive […]).

Heliothis armigera = Heliothis armigera test (soya bean shoots, dip); type: in vivo
Procedure: [table] To prepare a suitable preparation of active compound, 1 part by weight of active compound is mixed with the stated amounts of solvent and emulsifier, and the concentrate is diluted with emulsifier-containing water to the desired concentration. Soya bean shoots (Glycine max) are treated by being dipped into the preparation of active compound of the desired concentration and are populated with caterpillars of the cotton bollworm (Heliothis armigera) while the leaves are still moist. After the desired period of time, the kill in % is determined. 100% means that all caterpillars have been killed; 0% means that none of the caterpillars have been killed.

Heliothis virescens = Heliothis virescens test (soya bean shoots, dip); type: in vivo
Procedure: [table] To prepare a suitable preparation of active compound, 1 part by weight of active compound is mixed with the stated amounts of solvent and emulsifier, and the concentrate is diluted with emulsifier-containing water to the desired concentration. Soya bean shoots (Glycine max) are treated by being dipped into the preparation of active compound of the desired concentration and are populated with Heliothis virescens caterpillars while the leaves are still moist. After the desired period of time, the kill in % is determined. 100% means that all caterpillars have been killed; 0% means that none of the caterpillars have been killed.

[2] = test system: Amblyomma hebraeum nymphs; assay: Amblyomma hebraeum (EH) polyphargous tick nymphs/dip treatment; type: in vivo; settings: 10 ppm, 1 min immersion, after 4 weeks; 100% = no normal ecdysis
Procedure: [table] 20 mg of active compound are dissolved in 1 ml of dimethyl sulphoxide. To prepare a suitable formulation, the solution of active compound is diluted with water to the concentration desired in each case. 10 nymphs which have sucked themselves full are immersed for 1 min in the preparation of active compound to be tested. The animals are transferred to petri dishes (Ø 9.5 cm) fitted with filter paper discs and covered. After the nymphs have remained in a controlled-environment cabinet for 4 weeks, the ecdysis rate is determined. 100% means that none of the animals have undergone normal ecdysis. 0% means that all animals have undergone ecdysis.

[3] = test system: Amblyomma hebraeum nymphs; assay: Amblyomma hebraeum (EH) tick nymphs/dip treatment, determination of the ED50; type: in vivo; settings: 1 min immersion, ecdysis rate after 4 weeks; not determinable = 50% not reached at 1000 ppm
Procedure: [table] 20 mg of active compound are dissolved in 1 ml of dimethyl sulphoxide. To prepare a suitable preparation, the solution of active compound is diluted with water to the concentration desired in each case. For the determination of the ED50 value, a dose-activity curve with the concentration spectrum 1000, 300, 100, 30, 10, 3, 1, 0.3, 0.1, 0.03, 0.01 ppm is prepared. 10 nymphs which have sucked themselves full are immersed for 1 min into the preparation of active compound to be tested. The animals are transferred to petri dishes (Ø 9.5 cm) fitted with filter paper discs and covered. After the nymphs have remained in a controlled-environment cabinet for 4 weeks, the ecdysis rate is determined. 100% means that none of the animals have undergone normal ecdysis. 0% means that all animals have undergone ecdysis. The data are calculated by a 4-parameter logistic curve fit using XLfit (ID Business Solutions Ltd.). If at 1000 ppm 50% mortality has not been reached, the ED50 is judged to be not determinable.

FC(F)=C(F)Oc1ccc(-c2ccc([C@H]3CCC(c4c(F)cccc4F)=N3)cc2)cc1
Kill rate in % after 7 d (Tetranychus urticae; 0.01 ppm): 98%

CC(C)(C)[Si](C)(C)Oc1ccc(-c2ccc([C@H]3CCC(c4c(F)cccc4F)=N3)cc2)cc1 [I-8, (2R)-2-(4′-{[tert-butyl(dimethyl)silyl]oxy}-1,1′-biphenyl-4-yl)-5-(2,6-difluorophenyl)-3,4-dihydro-2H-pyrrole]
melting point: 33 °C | chromatographic logP [1]: 6.2

OC1([C@H]2CCC(c3c(F)cccc3F)=N2)C=CC(c2ccccc2)=CC1 (stereo partly drawn) [I-9, 4′-[(2R)-5-(2,6-difluorophenyl)-3,4-dihydro-2H-pyrrol-2-yl]-1,1′-biphenyl-4′-ol]
melting point: 217 °C

[O-][S+](c1ccc(-c2ccc([C@H]3CCC(c4c(F)cccc4F)=N3)cc2)cc1)C(F)(F)F (some centres unmarked) [I-10]
melting point: 146 to 148 °C

O=S(=O)(c1ccc(-c2ccc([C@H]3CCC(c4c(F)cccc4F)=N3)cc2)cc1)C(F)F [I-14]
melting point: 148 to 150 °C

Fc1cccc(F)c1C1=N[C@@H](c2ccc(-c3ccc(OC(F)(F)F)cc3)cc2)CC1 [drawing 59]
Kill rate in % after 6 d (Heliothis armigera; 8 ppm): 100%

Fc1cccc(F)c1C1=N[C@H](c2ccc(-c3ccc(OC(F)(F)F)cc3)cc2)CC1 [drawing 60, reference compound]
Kill rate in % after 6 d (Heliothis armigera; 8 ppm): 0%

Fc1cccc(F)c1C1=N[C@@H](c2ccc(-c3ccc(SC(F)(F)F)cc3)cc2)CC1 [drawing 61]
Kill rate in % after 6 d (Heliothis armigera; 1.6 ppm): 100%

Fc1cccc(F)c1C1=N[C@H](c2ccc(-c3ccc(SC(F)(F)F)cc3)cc2)CC1 [drawing 62, reference compound]
Kill rate in % after 6 d (Heliothis armigera; 1.6 ppm): 0%

Fc1cccc(F)c1C1=NC(c2ccc(-c3ccc(OC(F)(F)F)cc3)cc2)CC1 (centres unmarked) [drawing 63]
Kill rate in % after 6 d (Heliothis virescens; 0.32 ppm): 20%

Fc1cccc(F)c1C1=N[C@@H](c2ccc(-c3ccc(OC(F)(F)F)cc3)cc2)CC1 [drawing 64]
Kill rate in % after 6 d (Heliothis virescens; 0.32 ppm): 90%

Fc1cccc(F)c1C1=N[C@H](c2ccc(-c3ccc(OC(F)(F)F)cc3)cc2)CC1 [drawing 65]
Kill rate in % after 6 d (Heliothis virescens; 8 ppm): 0%

Fc1cccc(F)c1C1=N[C@@H](c2ccc(-c3ccc(SC(F)(F)F)cc3)cc2)CC1 [drawing 66]
Kill rate in % after 6 d (Heliothis virescens; 1.6 ppm): 100%

Fc1cccc(F)c1C1=N[C@H](c2ccc(-c3ccc(SC(F)(F)F)cc3)cc2)CC1 [drawing 67]
Kill rate in % after 6 d (Heliothis virescens; 1.6 ppm): 15%

CCOc1cc(C(C)(C)C)ccc1C1CCC(c2c(F)cccc2F)=N1 (centres unmarked) [drawing 97, reference compound]
Kill rate in % after 7 d (Tetranychus urticae; 0.32 ppm): 0%

CCOc1cc(C(C)(C)C)ccc1[C@H]1CCC(c2c(F)cccc2F)=N1 [drawing 98]
Kill rate in % after 7 d (Tetranychus urticae; 0.32 ppm): 90%

CCOc1cc(C(C)(C)C)ccc1[C@@H]1CCC(c2c(F)cccc2F)=N1 [drawing 99, reference compound]
Kill rate in % after 7 d (Tetranychus urticae; 8 ppm): 0%

Fc1cccc(F)c1C1=N[C@@H](c2ccc(-c3ccc(OC(F)(F)F)cc3)cc2)CC1 [drawing 100]
Kill rate in % after 7 d (Tetranychus urticae; 0.0128 ppm): 95%

Fc1cccc(F)c1C1=N[C@H](c2ccc(-c3ccc(OC(F)(F)F)cc3)cc2)CC1 [drawing 101, reference compound]
Kill rate in % after 7 d (Tetranychus urticae; 0.0128 ppm): 0%

CCOc1cc(C(C)(C)C)ccc1C1CCC(c2c(F)cccc2F)=N1 (centres unmarked) [drawing 103]
Effects on ecdysis in % [2]: 100%

CCOc1cc(C(C)(C)C)ccc1[C@H]1CCC(c2c(F)cccc2F)=N1 [drawing 104]
Effects on ecdysis in % [2]: 100%

CCOc1cc(C(C)(C)C)ccc1[C@@H]1CCC(c2c(F)cccc2F)=N1 [drawing 105]
Effects on ecdysis in % [2]: 0%

Fc1cccc(F)c1C1=NC(c2ccc(-c3ccc(OC(F)(F)F)cc3)cc2)CC1 (centres unmarked) [drawing 106]
Effects on ecdysis in % [2]: 100%

Fc1cccc(F)c1C1=N[C@@H](c2ccc(-c3ccc(OC(F)(F)F)cc3)cc2)CC1 [drawing 107]
Effects on ecdysis in % [2]: 100%

Fc1cccc(F)c1C1=N[C@H](c2ccc(-c3ccc(OC(F)(F)F)cc3)cc2)CC1 [drawing 108]
Effects on ecdysis in % [2]: 0%

CCOc1cc(C(C)(C)C)ccc1C1CCC(c2c(F)cccc2F)=N1 (centres unmarked) [drawing 109]
ED 50 (ppm) [3]: 0.27 ppm

CCOc1cc(C(C)(C)C)ccc1[C@H]1CCC(c2c(F)cccc2F)=N1 [drawing 110]
ED 50 (ppm) [3]: 0.14 ppm

CCOc1cc(C(C)(C)C)ccc1[C@@H]1CCC(c2c(F)cccc2F)=N1 [drawing 111]
ED 50 (ppm) [3]: notdeterminable

Fc1cccc(F)c1C1=NC(c2ccc(-c3ccc(OC(F)(F)F)cc3)cc2)CC1 (centres unmarked) [drawing 112]
ED 50 (ppm) [3]: 0.58 ppm

Fc1cccc(F)c1C1=N[C@@H](c2ccc(-c3ccc(OC(F)(F)F)cc3)cc2)CC1 [drawing 113]
ED 50 (ppm) [3]: 0.20 ppm

Fc1cccc(F)c1C1=N[C@H](c2ccc(-c3ccc(OC(F)(F)F)cc3)cc2)CC1 [drawing 114]
ED 50 (ppm) [3]: 549.86 ppm
